Results from article PMC6005348, “Betahistine Treatment in a Cat Model of Vestibular Pathology: Pharmacokinetic and Pharmacodynamic Approaches” (Frontiers in Neurology, 2018).
Like-named read-outs stand apart in the source and are kept apart here.

Tests used:
[1] = Plasma pharmacokinetics of betahistine and 2-PAA after oral dosing in UVN cats (LC-MS/MS, non-compartmental analysis); format: in vivo, cat; conditions: for AUC / Cmax / Tmax / half-life: male, plasma, po; for half-life: read-out: Betahistine t1/2 (converted)
Protocol: The experiments were performed on nine adult male UVN cats randomly allocated into three groups of cats. Three groups of three adult male cats received 0.2 mg/kg betahistine (N = 3: cats 1–3), 2 mg/kg betahistine (N = 3: cats 4–6), or 0.2 mg/kg betahistine plus 1 mg/kg selegiline (N = 3: cats 7–9). […] The samples were frozen at −80°C until analysis. Pharmacokinetic parameters of betahistine and its major metabolite 2-PAA were calculated by applying non-compartmental analysis.
Betahistine and its internal standard, betahistine-d3, were extracted by liquid/liquid extraction from plasma under alkaline conditions toward 1-butanol/isooctane, followed by a second liquid/liquid extraction step of acidic 1-butanol/isooctane toward water. Betahistine concentration in plasma was analyzed using a validated LC-MS/MS method. In brief, an API 4000 (Applied Biosystems) mass spectrometer coupled with a Symbiosis HPLC system (Sparks, Emmen, The Netherlands) was employed to analyze betahistine. Extracts (100 μl) were injected into a XTerra RP18 150 ^* 4.6 mm, 3.5 μm column (Waters, Etten-Leur, The Netherlands) and separated at 30°C under isocratic conditions using an aqueous metanol solution containing 0.5 mM ammonium formate as mobile phase. Betahistine was quantified by a tandem mass spectrometer in positive MRM. Parent daughter transition was followed for betahistine (m/z 137 > 94). Betahistine-d3 dihydrochloride was used as internal standard. Pharmacokinetic parameters of betahistine were calculated by applying non-compartmental analysis using the validated PK software WinNonLin, version 5.23 (Pharsight Corporation, Mountain View, CA, USA).
Cmax and tmax were derived directly from the plasma concentration-time curves. Linear trapezoidal rule was used to calculate AUC0-t during the part of the curve with increasing plasma concentrations. For the descending part of the curve, the log-linear trapezoidal rule was used. Calculation of the elimination half-life (t1/2) was evaluated as ln 2/kel, with kel as the slope of the terminal phase of the plasma concentration-time curve.

[2] = test system: histidine decarboxylase (HDC); assay: Number of HDC immunoreactive neurons in the tuberomammillary nuclei (immunohistochemistry); format: in vivo, cat
Protocol: […] animals were used for the immunohistochemical study to label the histamine synthesizing enzyme: the HDC. This study was performed on the same four groups of cats used for the behavioral investigation (cats 10–22). These lesioned animals (left UVN) were all killed 40 days after vestibular lesion. A supplementary group of intact animals (n = 4: cats 23–26) was used as a negative control group without vestibular lesion.
Cats were deeply anesthetized with ketamine dihydrochloride (20 mg/kg, i.m., Rhône Poulenc Mérieux) and perfused under isoflurane intubation (2%), through the ascending aorta, with 1 L of normal saline solution (0.9%) containing 0.1% heparine, and thereafter with 2 L of ice-cold 0.1 M phosphate buffer (PB, pH 7.4) including 4% paraformaldehyde and 0.2% picric acid.
After removal from the skull, the brain was cut into several blocks and post-fixed overnight at 4°C in the same solution. The blocks were then rinsed and cryoprotected by increasing concentrations (10, 20, and 30%) of sucrose solution in 0.1 M PB for 72 h at 4°C. Blocks containing the TMN were rapidly frozen with CO2 gas, and coronal sections 20 μm thick were cut in a cryostat (Leica, Rueil-Malmaison, France).
Free-floating sections were first incubated three times for 5 min in PBS (phosphate buffer saline 0.1 M), then for 1 h in 10% BSA, and 0.25% Triton X-100. Thereafter, sections were incubated under continuous agitation 24 h at 4°C with a Guinea pig polyclonal anti-HDC antiserum (1:1,000 in PBS containing 2% BSA and 0.25% Triton; Fisher scientific). After several rinses (3 × 5 min in PBS with 2% BSA and 3 × 5 min in PBS with 5% BSA) sections were incubated for 1 h, respectively, in biotinylated rabbit anti-guinea pig IgG (1:200 in PBS containing 2% BSA; from Vector Laboratories, Burlingame, CA). […]
The tuberomammillary nuclei (TMN) of the posterior hypothalamus, the sole structure in the brain containing histaminergic neurons, were identified using Berman's stereotaxic atlas ([38]). […] Serial sections in the TMN of each animal were analyzed, five sections at each of the five rostrocaudal levels examined (A12, A11, A10.2, A9.5, and A8.3) being quantified. The number of HDC immunoreactive neurons was quantified by means of a computer-assisted image analysis (DMLB microscope: Leica Microsystems, Wetzlar, Germany) equipped with a DXM 1200 Nikon high-resolution digital camera (1,024 × 1,024 pixels; Nikon, Tokyo, Japan) interfaced to a PC computer employing image software for capturing and processing the images (Lucia G, Nikon, Champigny-sur-Marne, France). Quantification of the immunolabeled neurons was performed via a gray-level method by adjusting a threshold brightness value, and only cells labeled with a gray value above this threshold were taken into account. Reproducibility was assessed by comparing the same data analyzed independently by two researchers blind to the animals' groups. The specific immunolabeling was quantified in each section as the number of labeled neurons, and was automatically computed and evaluated thereafter as the mean (± SEM) for each side, each cat, and each subgroup of cats. To eliminate quantification problems due to potentially asymmetric slides, data were collected from symmetrical slides only, and symmetry was assessed on the basis of the number of cells stained with cresyl violet on each side. […]

[3] = test system: monoamine oxidase a/b; conditions: background statement, no reference given; cited from earlier work
[4] = cats, abstract statement, up to
[5] = 0.2 mg/kg, UVN cats, oral betahistine 0.2 mg/kg alone, day 1
[6] = 2 mg/kg, UVN cats, oral betahistine 2 mg/kg alone, day 1
[7] = 2 mg/kg, UVN cats, oral betahistine 2 mg/kg alone, day 21
[8] = UVN cats, oral betahistine 0.2 mg/kg plus selegiline 1 mg/kg, day 1
[9] = UVN cats, oral betahistine 0.2 mg/kg plus selegiline 1 mg/kg, day 21
[10] = UVN D40, betahistine 2 mg/kg, p < 0.0001

## CNCCc1ccccn1 [Betahistine, betahistine]
[1]; cats higher than human
  Cmax- and AUC-values in cats compared to human: 40–50 times
[1]; [4]
  Increase of betahistine AUC by co administration of selegiline: ≤ 180 fold
  Increase of betahistine Cmax by co administration of selegiline: up to 146 fold
[1]; 0.2 mg/kg, PK/PD table, DAY 2, BH 0.2 mg/kg, read-out: AUC (betahistine)
  AUC: 3.65 ng·h/mL
[1]; 0.2 mg/kg, PK/PD table, DAY 2, BH 0.2 mg/kg, read-out: Cmax (betahistine)
  Cmax: 4.11 ng/mL
[1]; [5]
  Tmax: 15 min
  half-life: 114 ± 42 min
[1]; 0.2 mg/kg, UVN cats, oral betahistine 0.2 mg/kg alone, day 1, read-out: Betahistine AUC
  AUC: 3.7 ± 2.1 ng·h/mL
[1]; 0.2 mg/kg, UVN cats, oral betahistine 0.2 mg/kg alone, day 1, read-out: Betahistine Cmax
  Cmax: 4.1 ± 2.9 ng/mL
[1]; 0.2 mg/kg, UVN cats, oral betahistine 0.2 mg/kg alone, day 21
  Tmax: 120 min
[1]; 0.2 mg/kg, UVN cats, oral betahistine 0.2 mg/kg alone, day 21, n = 2
  half-life: 240 min
[1]; 0.2 mg/kg, UVN cats, oral betahistine 0.2 mg/kg alone, day 21, read-out: Betahistine AUC
  AUC: 1.5 ± 0.6 ng·h/mL
[1]; 0.2 mg/kg, UVN cats, oral betahistine 0.2 mg/kg alone, day 21, read-out: Betahistine Cmax
  Cmax: 0.6 ± 0.4 ng/mL
[1]; 2 mg/kg, PK/PD table, DAY 2, BH 2.0 mg/kg, read-out: AUC (betahistine)
  AUC: 26.7 ng·h/mL
[1]; 2 mg/kg, PK/PD table, DAY 2, BH 2.0 mg/kg, read-out: Cmax (betahistine)
  Cmax: 54 ng/mL
[1]; [6]
  Tmax: 15 min
  half-life: 180 ± 156 min
[1]; 2 mg/kg, UVN cats, oral betahistine 2 mg/kg alone, day 1, read-out: Betahistine AUC
  AUC: 19.7 ± 5 ng·h/mL
[1]; 2 mg/kg, UVN cats, oral betahistine 2 mg/kg alone, day 1, read-out: Betahistine Cmax
  Cmax: 23.8 ± 11.2 ng/mL
[1]; [7]
  Tmax: 30 min
  half-life: 96 ± 18 min
[1]; 2 mg/kg, UVN cats, oral betahistine 2 mg/kg alone, day 21, read-out: Betahistine AUC
  AUC: 51 ± 42.4 ng·h/mL
[1]; 2 mg/kg, UVN cats, oral betahistine 2 mg/kg alone, day 21, read-out: Betahistine Cmax
  Cmax: 38.9 ± 34.9 ng/mL
[1]; PK/PD table, DAY 2, BH 0.2 mg/kg + Selegiline 1 mg/kg, read-out: AUC (betahistine)
  AUC: 19.7 ng·h/mL
[1]; PK/PD table, DAY 2, BH 0.2 mg/kg + Selegiline 1 mg/kg, read-out: Cmax (betahistine)
  Cmax: 23.8 ng/mL
[1]; [8]
  Tmax: 15 min
  half-life: 150 ± 30 min
[1]; UVN cats, oral betahistine 0.2 mg/kg plus selegiline 1 mg/kg, day 1, read-out: Betahistine AUC
  AUC: 26.7 ± 24.1 ng·h/mL
[1]; [9]
  Tmax: 60 min
  half-life: 114 ± 24 min
[1]; UVN cats, oral betahistine 0.2 mg/kg plus selegiline 1 mg/kg, day 21, read-out: Betahistine AUC
  AUC: 6.7 ± 5.1 ng·h/mL
[1]; UVN cats, oral betahistine 0.2 mg/kg plus selegiline 1 mg/kg, day 21, read-out: Betahistine Cmax
  Cmax: 13.2 ± 13 ng/mL
[1]; repeated administration, day 21
  Betahistine Cmax with versus without selegiline co-administration: 65 fold
[1]; single administration, day 1
  Increase of betahistine AUC0−7h by selegiline 1 mg/kg: ~ 5 fold
  Increase of betahistine Cmax by selegiline 1 mg/kg: ~ 5 fold
[2]; UVN D40, betahistine 0.2 mg/kg without selegiline, UVN untreated 151.78 ± 3.29
  Number of HDC immunoreactive neurons, ipsilateral TMN: 151.3 ± 1.51
[2]; UVN D40, betahistine 0.2 mg/kg without selegiline, UVN untreated 152.4 ± 3.63
  Number of HDC immunoreactive neurons, contralateral TMN: 151.1 ± 1.63
[2]; [10]
  Number of HDC immunoreactive neurons, contralateral TMN: 191.68 ± 2.04
  Number of HDC immunoreactive neurons, ipsilateral TMN: 190.85 ± 1.58
[2]; lesion and betahistine 2 mg/kg, 40 days post-lesion, compared to UVN untreated cats as worded
  Number of HDC immunopositive neurons on both sides, on average: 210%
[3]
  Share of the drug fastly metabolized by the monoamine oxidase a/b: 95%
